# Earlier results as cited in patent US20130281512A1, “AGENTS FOR TREATING DISORDERS INVOLVING MODULATION OF RYANODINE RECEPTORS” (LES LABORATOIRES SERVIER, priority 2012, published 2013).
# Assays:
# [1] = system: RyR1; details: mdx mouse model; cited from earlier work
# [2] = target: T1, RyR1 (Mus musculus, UniProt E9PZQ0); details: extreme exercise, mice; cited from earlier work
# T1 construct: RyR1 from aged (24 months) mice is oxidized, cysteine-nitrosylated, and depleted of calstabin1; host or cells: mice (in vivo)
# [3] = system: RyR2; details: WT and RyR2-S2808D+/+ mice; cited from earlier work
# [4] = system: RyR; details: cited from earlier work
# [5] = target: T1, RyR1; details: aged mice; cited from earlier work
# [6] = system: DMD exon skipping; details: skeletal muscle of mdx mice; cited from earlier work
# T1 sequence (E9PZQ0 whole entry): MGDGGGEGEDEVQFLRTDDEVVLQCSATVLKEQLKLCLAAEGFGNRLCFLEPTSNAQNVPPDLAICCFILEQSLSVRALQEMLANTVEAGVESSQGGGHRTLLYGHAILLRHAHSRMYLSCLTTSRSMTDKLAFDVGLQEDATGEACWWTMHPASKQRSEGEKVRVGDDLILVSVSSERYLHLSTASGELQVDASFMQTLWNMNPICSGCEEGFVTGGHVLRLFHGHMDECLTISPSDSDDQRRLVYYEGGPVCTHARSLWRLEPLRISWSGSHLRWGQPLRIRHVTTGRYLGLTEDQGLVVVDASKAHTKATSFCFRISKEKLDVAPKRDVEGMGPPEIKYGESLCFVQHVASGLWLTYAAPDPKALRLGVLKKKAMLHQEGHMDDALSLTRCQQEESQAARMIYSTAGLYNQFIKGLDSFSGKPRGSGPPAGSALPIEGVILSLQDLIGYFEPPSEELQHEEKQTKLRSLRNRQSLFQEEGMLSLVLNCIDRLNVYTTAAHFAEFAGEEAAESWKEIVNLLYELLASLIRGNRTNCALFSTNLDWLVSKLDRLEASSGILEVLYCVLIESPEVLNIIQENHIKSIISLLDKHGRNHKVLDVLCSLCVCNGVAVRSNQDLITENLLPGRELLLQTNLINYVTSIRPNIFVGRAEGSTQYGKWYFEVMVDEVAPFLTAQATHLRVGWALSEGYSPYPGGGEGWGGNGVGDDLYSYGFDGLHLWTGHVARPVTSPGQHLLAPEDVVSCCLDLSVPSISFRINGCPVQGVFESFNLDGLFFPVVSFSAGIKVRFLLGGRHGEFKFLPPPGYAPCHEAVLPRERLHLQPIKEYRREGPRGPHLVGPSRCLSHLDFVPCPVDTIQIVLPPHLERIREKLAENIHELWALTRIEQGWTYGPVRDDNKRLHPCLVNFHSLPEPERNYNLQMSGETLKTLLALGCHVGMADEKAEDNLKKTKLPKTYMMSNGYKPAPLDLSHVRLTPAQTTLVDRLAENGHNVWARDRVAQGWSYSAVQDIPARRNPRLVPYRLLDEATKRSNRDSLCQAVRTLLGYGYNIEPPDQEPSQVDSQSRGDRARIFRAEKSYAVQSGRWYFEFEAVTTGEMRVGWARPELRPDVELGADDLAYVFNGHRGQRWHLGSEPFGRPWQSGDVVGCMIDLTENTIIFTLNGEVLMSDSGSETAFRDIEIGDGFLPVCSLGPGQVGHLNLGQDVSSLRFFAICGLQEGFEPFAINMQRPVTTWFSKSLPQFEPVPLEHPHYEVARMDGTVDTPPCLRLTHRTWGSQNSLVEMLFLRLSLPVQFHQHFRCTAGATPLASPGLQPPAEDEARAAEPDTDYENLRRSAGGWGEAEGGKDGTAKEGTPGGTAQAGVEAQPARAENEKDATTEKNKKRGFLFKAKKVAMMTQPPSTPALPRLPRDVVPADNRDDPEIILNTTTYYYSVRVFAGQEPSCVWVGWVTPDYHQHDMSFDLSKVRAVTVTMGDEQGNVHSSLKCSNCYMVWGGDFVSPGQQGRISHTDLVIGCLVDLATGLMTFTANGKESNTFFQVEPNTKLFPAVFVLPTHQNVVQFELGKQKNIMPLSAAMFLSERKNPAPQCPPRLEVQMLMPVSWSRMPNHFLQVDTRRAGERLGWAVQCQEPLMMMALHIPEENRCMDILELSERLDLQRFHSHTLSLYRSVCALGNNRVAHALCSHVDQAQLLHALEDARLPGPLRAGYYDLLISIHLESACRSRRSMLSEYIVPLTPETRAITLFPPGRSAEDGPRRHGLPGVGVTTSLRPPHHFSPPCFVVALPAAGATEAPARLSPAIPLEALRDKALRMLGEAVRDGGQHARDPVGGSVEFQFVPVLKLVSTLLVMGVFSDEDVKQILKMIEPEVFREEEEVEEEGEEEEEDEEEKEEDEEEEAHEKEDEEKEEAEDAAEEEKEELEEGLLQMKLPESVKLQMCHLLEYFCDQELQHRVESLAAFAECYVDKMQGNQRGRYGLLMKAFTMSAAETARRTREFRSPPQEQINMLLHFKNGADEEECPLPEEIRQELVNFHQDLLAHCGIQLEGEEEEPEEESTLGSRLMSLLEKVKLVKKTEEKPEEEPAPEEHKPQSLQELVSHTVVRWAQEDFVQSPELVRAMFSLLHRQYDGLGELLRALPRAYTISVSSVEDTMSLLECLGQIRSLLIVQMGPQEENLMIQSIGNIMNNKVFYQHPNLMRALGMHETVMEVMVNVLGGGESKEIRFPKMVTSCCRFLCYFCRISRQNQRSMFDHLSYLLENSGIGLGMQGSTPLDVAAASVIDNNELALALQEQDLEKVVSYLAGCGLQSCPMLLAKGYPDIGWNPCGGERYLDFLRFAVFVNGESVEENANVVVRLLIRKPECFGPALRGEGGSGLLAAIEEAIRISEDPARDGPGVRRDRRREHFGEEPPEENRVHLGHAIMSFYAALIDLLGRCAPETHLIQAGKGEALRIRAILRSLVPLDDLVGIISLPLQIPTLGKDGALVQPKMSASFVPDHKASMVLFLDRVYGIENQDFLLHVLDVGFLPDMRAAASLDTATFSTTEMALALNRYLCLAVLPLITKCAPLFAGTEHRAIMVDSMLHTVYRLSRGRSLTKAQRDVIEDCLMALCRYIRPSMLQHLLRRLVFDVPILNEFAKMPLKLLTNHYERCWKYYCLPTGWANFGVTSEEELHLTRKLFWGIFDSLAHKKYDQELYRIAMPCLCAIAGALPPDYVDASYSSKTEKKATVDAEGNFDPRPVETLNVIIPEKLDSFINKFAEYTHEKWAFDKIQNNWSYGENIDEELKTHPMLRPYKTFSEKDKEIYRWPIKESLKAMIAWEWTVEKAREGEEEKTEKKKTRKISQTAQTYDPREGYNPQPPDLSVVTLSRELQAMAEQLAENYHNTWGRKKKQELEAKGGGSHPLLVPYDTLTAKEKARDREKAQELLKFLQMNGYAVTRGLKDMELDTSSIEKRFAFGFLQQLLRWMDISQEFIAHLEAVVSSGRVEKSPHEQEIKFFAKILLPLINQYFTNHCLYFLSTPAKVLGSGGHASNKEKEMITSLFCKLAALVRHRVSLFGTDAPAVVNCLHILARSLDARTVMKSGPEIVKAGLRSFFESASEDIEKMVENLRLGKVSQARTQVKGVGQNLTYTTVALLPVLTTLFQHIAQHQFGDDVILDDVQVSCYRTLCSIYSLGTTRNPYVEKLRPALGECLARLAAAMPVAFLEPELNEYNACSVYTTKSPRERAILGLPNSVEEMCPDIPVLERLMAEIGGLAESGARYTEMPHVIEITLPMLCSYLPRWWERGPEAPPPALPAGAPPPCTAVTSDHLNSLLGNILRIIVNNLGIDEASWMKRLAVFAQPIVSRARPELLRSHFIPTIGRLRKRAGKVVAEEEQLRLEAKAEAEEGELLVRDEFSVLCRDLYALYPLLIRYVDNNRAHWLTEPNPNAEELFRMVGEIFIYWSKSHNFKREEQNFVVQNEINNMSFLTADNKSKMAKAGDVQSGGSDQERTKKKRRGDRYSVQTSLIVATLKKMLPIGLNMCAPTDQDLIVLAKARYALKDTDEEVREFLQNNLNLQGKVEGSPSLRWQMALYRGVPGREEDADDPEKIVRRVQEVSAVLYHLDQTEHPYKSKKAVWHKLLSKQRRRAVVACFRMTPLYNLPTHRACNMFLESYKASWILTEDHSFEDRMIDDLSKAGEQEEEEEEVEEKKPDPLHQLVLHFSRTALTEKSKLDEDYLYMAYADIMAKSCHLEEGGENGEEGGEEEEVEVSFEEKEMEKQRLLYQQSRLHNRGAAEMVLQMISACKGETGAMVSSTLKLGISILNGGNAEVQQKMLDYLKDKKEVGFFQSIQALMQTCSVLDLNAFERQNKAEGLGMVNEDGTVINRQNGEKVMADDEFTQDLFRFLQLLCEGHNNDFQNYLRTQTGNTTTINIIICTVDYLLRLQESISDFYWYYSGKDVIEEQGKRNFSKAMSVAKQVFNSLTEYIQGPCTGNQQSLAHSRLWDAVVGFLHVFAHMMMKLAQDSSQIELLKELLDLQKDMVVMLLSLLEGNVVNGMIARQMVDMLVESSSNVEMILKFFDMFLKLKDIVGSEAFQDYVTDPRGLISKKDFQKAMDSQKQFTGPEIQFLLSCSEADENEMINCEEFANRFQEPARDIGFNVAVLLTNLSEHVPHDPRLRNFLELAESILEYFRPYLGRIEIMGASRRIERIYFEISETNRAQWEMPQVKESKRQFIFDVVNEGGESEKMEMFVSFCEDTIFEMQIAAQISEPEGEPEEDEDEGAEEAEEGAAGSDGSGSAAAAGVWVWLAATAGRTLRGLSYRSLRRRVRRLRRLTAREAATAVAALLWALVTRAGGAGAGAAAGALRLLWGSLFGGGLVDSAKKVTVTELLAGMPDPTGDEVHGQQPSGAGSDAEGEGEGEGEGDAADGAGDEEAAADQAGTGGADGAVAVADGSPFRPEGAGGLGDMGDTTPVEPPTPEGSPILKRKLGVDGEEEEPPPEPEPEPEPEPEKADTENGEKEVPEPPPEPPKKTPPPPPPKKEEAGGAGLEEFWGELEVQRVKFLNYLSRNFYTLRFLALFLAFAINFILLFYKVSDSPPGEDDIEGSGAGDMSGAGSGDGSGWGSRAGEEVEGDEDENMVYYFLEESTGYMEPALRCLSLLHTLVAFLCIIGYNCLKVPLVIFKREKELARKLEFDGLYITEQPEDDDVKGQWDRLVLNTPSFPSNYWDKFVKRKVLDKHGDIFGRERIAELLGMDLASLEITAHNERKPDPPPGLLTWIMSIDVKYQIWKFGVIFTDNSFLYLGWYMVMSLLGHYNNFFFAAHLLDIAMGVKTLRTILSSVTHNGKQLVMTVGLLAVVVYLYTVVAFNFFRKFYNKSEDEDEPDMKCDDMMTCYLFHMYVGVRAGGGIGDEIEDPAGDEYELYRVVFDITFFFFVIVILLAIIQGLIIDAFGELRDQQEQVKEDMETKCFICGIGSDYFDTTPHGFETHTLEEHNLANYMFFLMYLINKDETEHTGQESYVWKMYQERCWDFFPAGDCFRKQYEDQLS
# T1 sequence (P26883 2-108 partner limits assumed): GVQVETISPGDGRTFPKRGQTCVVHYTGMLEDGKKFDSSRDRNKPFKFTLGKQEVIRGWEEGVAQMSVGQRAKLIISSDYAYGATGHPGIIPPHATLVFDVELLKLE
SMILES,indices of muscle function [1],Ca2+ dependent neutral protease calpain activity and plasma creatinine kinase levels [2],depletion of calstabin1 from the RyR1 complex [2],HF progression [3],RyR2-mediated diastolic SR Ca2+ leak [3],SR Ca2+ leak ([4]; after myocardial ischemia-reperfusion),"ventricular arrhythmias, infarct size, and left ventricular remodeling ([4]; at 15 days after reperfusion)",binding of calstabin1 to RyR1 [5],intracellular calcium leak [5],reactive oxygen species (ROS) [5],"tetanic Ca2+ release, muscle-specific force, and exercise capacity [5]",antisense oligomer-guided exon skipping [6]
COc1ccc2c(c1)CN(C)CCS2 [Compound 5107],improves,reduced,prevented,reduced,inhibited,inhibited,reduced,stabilized,reduced,decreased,enhanced,–
O=C1CN(/N=C/c2ccc(-c3ccc([N+](=O)[O-])cc3)o2)C(O)=N1 [Dantrolene],–,–,–,–,–,–,–,–,–,–,–,potentiate
